Test results as given in patent US20220226311A1, “PROCASPASE-3 ACTIVATION AND IMMUNOTHERAPY FOR TREATMENT OF CANCER” (The Board of Trustees of the University of Illinois, priority 2019, published 2022).

What was measured:
[1] = single-agent treatment; cited from earlier work
cancer cells [2] = experiment: DNA damage in cancer cells; type: cell-based
From the text: (§1) Increased immune cell infiltration in PAC-1 treated GL261 tumors. […] 3) PAC-1 is efficacious in in vivo settings with intact immune systems, including syngeneic mouse (EL4, K7M2, GL261) (FIG. 7) and rat (9L) models, and canine cancer patients.

GL261 neurospheres = experiment: Tumor infiltrating lymphocytes (CD3 staining) in orthotopic GL261 syngeneic model; type: in vivo, C57BL/6 mice; conditions: single-agent PAC-1 100 mg/kg PO x 10 days
Description: (§2) FIG. 4. PAC-1 treatment of mice with syngeneic tumors increases the numbers of tumor infiltrating lymphocytes. A) C57BL/6 mice with orthotopic transplant of GL261 neurospheres. Tumors were allowed to establish for 10 days, then mice (n=3/group) were treated with or without PAC-1 (100 mg/kg PO×10 days), then sacrificed. Tumors were stained for CD3 (brown) to identify T cell TILs. Data presented as average CD3^+ per 4 HPF/mouse. Magnification 100×. B) C57BL/6 mice with subcutaneous transplant of B16F10 cells. Tumors were allowed to establish for 7 days, then mice (n=8/group) were treated with or without PAC-1 (100 mg/kg IP×2×14 days), then sacrificed. Tumors were stained for CD3 (brown) to identify T cell TILs. Data presented as average CD3^+ per 10 HPF/mouse. Magnification 100×.

[3] = combination with immune cytokine TRAIL, in culture; cited from earlier work
B16F10 cells = experiment: Tumor infiltrating lymphocytes (CD3 staining) in subcutaneous B16F10 syngeneic model; type: in vivo, C57BL/6 mice; conditions: single-agent PAC-1 100 mg/kg IP x2 x14 days
Description: as §2

clinical = conditions: human, in vivo, 450 mg
cancer cells [4] = experiment: Transcript profile of cancer cells treated with PAC-1; type: cell-based
From the text: as §1

[5] = tested on: lung tumor microenvironment; experiment: Immune cell populations in lungs, PBMC and spleen after tumor challenge; type: in vivo, BALB/c mice
From the text: FIG. 13. Analysis of neutrophil and macrophage populations after treatment with PAC-1 14 days post-tumor challenge in lungs, PBMC, and spleen. Open circle=vehicle+anti-IgG2A antibody; square=PAC-1+anti-IgG2a antibody; triangle=vehicle+anti-PD-1 mAb; inverted triangle=PAC-1+anti-PD-1 mAb.
FIG. 14. Analysis of T-cells, B-cells, and NK cell populations in the lungs, PBMC, and spleen of BALB/c mice 26 days post combinatorial PAC-1 and anti-PD-1 treatment. Open circle=vehicle+anti-IgG2A antibody; square=PAC-1+anti-IgG2a antibody; triangle=vehicle+anti-PD-1 mAb; inverted triangle=PAC-1+anti-PD-1 mAb.
FIG. 15. PD-L1 expression on the surface of dendritic cells and CD45^− tumor cells 26 days post-tumor challenge in lungs, PBMC, and spleen of BALB/c mice. Open circle=vehicle+anti-IgG2A antibody; square=PAC-1+anti-IgG2a antibody; triangle=vehicle+anti-PD-1 mAb; inverted triangle=PAC-1+anti-PD-1 mAb.

[6] = Tolerability of PAC-1 in the human clinical trial; type: in vivo; conditions: patients taking PAC-1 for over 10 months (one at 450 mg daily)
From the text: (§3) It should be noted that cancer drugs can induce secondary cancers, for example, almost ⅓ of patients treated with single-agent vemurafenib develop secondary malignancies; but to date this has not been observed for PAC-1. Just as PAC-1 induces PC-3 cleavage selectively in cancer cells, the resulting caspase-3 activity should lead to selective MLH1 cleavage in cancer cells. It is worth noting that Turcot syndrome, a constitutional mismatch repair deficiency (CMMRD) cancer prone syndrome, is correlated with biallelic germline mutations in MMR genes, resulting in the development of GBM at a young age. Turcot syndrome and other CMMRD syndromes (i.e. Lynch Syndrome) point to the importance of maintaining MMR protein function, implying that inducing MLH1 cleavage/loss in a non-targeted, pan-organism fashion is not a viable therapeutic strategy. However, the strategy with PAC-1 leverages the well-known overexpression of PC-3 in cancer cells (including GBM) resulting in targeted MLH1 cleavage in tumors, leaving MMR proteins in normal cells unperturbed and operating.

PMBCs = conditions: cited from earlier work
plasma cytokines = experiment: Cytokine array of plasma from mice treated with PAC-1; type: in vivo, BALB/c mice; conditions: PAC-1 x5 doses, pooled samples from 2-3 mice
Description: FIG. 12. A) Example treatment protocol. B) Cytokine array of plasma from BALB/c mice treated with PAC-1.
[…] were centrifuged at 8000 g for 10 mins, and plasma/supt was transferred to new tubes. Cytokine array was performed on 4 groups using pooled samples from 2-3 mice:
Signals were quantified using ImageJ. Data was normalized by calculating the ratio of PAC-1/vehicle mean pixel density as shown in the plot.

HT-29 cells = experiment: Western blot for MLH1 and PARP-1 cleavage after PAC-1 treatment of cell lines; type: cell-based
Description: FIG. 3. PAC-1 treatment leads to MLH1 cleavage in the absence of Apoptotic Death Markers. Cell lines were incubated with indicated concentrations of PAC-1 for 72 hours, followed by western blot analysis for MLH1 protein level, as well as PARP-1, cleaved PARP-1 (c-PARP-1 is an apoptosis maker), and beta-actin (loading control).
Results. MSS/MSI status of colon cancer cell lines have been reported (Ahmed, D., et al., Oncogenesis 2013, 2, e71), allowing for selection of HT-29, an MSS colon cancer cell line. To date, studies that have focused on the cleavage of MLH1 have utilized strategies that broadly induce high levels of apoptotic cell death (i.e., with staurosporine). HT-29 cells were treated with sub-lethal PAC-1.

CT-26_WT cells = experiment: CT-26_WT subcutaneous tumor model; type: in vivo, BALB/c mice; conditions: sc CT-26_WT; PAC-1 100 mg/kg i.p., anti-PD-1 10 mg/kg, 2 or 4 doses; vs vehicle+anti-IgG
Description: FIG. 9. Growth of CT-26_WT in BALB/c mice after 2 doses (A) versus 4 doses (B). Open circle=vehicle+anti-IgG2A antibody; square=PAC-1 (100 mg/kg)+anti-IgG2a antibody; triangle=vehicle+anti-PD-1 mAb; inverted triangle=PAC-1 (100 mg/kg)+anti-PD-1 mAb.
FIG. 10. Analysis of treatment of BALB/c mice with PAC-1 and anti-PDL1 mAb. Open circle=vehicle+anti-IgG2A antibody; square=PAC-1 (100 mg/kg)+anti-IgG2a antibody; triangle=vehicle+anti-PD-1 mAb; inverted triangle=PAC-1 (100 mg/kg)+anti-PD-1 mAb.
FIG. 8 illustrates the development of a CT-26_WT subcutaneous disease model in BALB/c mice. At day 0, BALB/c mice were injected subcutaneously with 1×10^6 CT-26_WT cells. At various day intervals, selected mice were injected (i.p.) with an empty vehicle, PAC-1 (100 mg/kg), anti-PD-1 antibody (10 mg/kg; 2 doses), anti-PD-1 antibody (10 mg/kg; 4 doses), or a combination of PAC-1 (100 mg/kg) and anti-PD-1 antibody (10 mg/kg;) as shown in Table 1.

[7] = Secondary malignancies in pet dogs with cancer treated with PAC-1; type: in vivo; conditions: pet dogs treated >6 months, >12 months after completion of therapy
From the text: as §3

[8] = Myelosuppression in animals and humans, including IND-enabling rat and dog studies; type: in vivo, mice, rats, dogs, or humans; conditions: also at very high doses in IND-enabling rat and dog studies
From the text: as §1

[9] = HT-29 cells, sub-lethal PAC-1, 72 hours

Structure (SMILES)	Fraction of patients developing secondary malignancies [1]	DNA damage (cancer cells [2])	Number of TILs (CD3+ cells) (GL261 neurospheres)	Extrinsic cell death [3]	Number of TILs (CD3+ cells) (B16F10 cells)	Cmax (clinical) [µM]	Markers associated with resistance to anti-PD-1 therapy (IPRES) (cancer cells [4])	Upregulated genes in transcript profile (cancer cells [4])	Neutrophils and macrophages in lung tumor microenvironment ([5]; day 14 post-tumor challenge)	Macrophages and dendritic cells in tumor microenvironment ([5]; day 26)	Ill effects on prolonged dosing [6]	Toxicity to PBMCs (PMBCs)	Plasma cytokines (ratio PAC-1/vehicle mean pixel density) (plasma cytokines)	Selectivity of MLH1 cleavage, cancer cell lines vs normal cell line HFF-1 (HT-29 cells; 72 hours)	PARP-1 cleavage (apoptosis marker) (HT-29 cells; [9])	PC-3 activation and MLH1 cleavage (HT-29 cells; [9])	Tumor growth (CT-26_WT cells)	Secondary malignancies [7]	Myelosuppression [8]
CCCS(=O)(=O)Nc1ccc(F)c(C(=O)c2c[nH]c3ncc(-c4ccc(Cl)cc4)cc23)c1F [vemurafenib]	⅓	–	–	–	–	–	–	–	–	–	–	–	–	–	–	–	–	–	–
C=CCc1cccc(/C=N/NC(=O)CN2CCN(Cc3ccccc3)CC2)c1O [PAC-1]	–	causes DNA damage selectively in cancer cells	increased the number of TILs	can enhance extrinsic cell death in culture	increased the number of TILs	7.8	no upregulation	upregulation of key genes including TNFα, innate immune system agonists IL-1β and IL-8	appear to increase	have decreased	no ill effects	minimal toxicity to PMBCs	increase in cytokines that promote macrophage differentiation as well as B-cell and T-cell proliferation	cancer cell specific MLH1 cleavage	little to no PARP-1 cleavage	induced PC-3 activation and MLH1 cleavage	large variation in controlling sc CT-26_WT growth	remain free of secondary malignancies	has not been observed to induce myelosuppression
